Entries after “also recorded” stand apart in the source; their conditions may differ.
What was measured:
ATGL [1] = assay: ATGL level in mouse adipose tissue explants (western blot); format: cell-based; conditions: 24 hours, 100 nM, 500 nM and 1 μM
Method: (§1) To further strengthen the efficiency of the compounds 9 and 107, primary hepatocytes were isolated from mice and these compounds were treated in a dose dependent manner for 24 hours. Primary hepatocytes and adipose tissue explants were isolated from mice and subjected to compound treatment for 24 hours at the doses of 100 nM, 500 nM and 1 μM. Post cell harvesting, western blot was carried out with the lysate to check the ATGL level. ATGL and COP1 antibodies were used. Actin served the purpose of a loading control.
2. Adipocytes—2-4 months old chow-fed black male mouse (C57bl/6) was sacrificed using chloroform (SRL) and was cleaned with 70% ethanol. Under aseptic conditions, the ventral side of the mouse was cut open, and gonadal (epididymal) white adipose tissue were excised using scissors and suspended in 1×PBS supplemented with 0.1% BSA in a 10 cm culture plate. The attached blood vessels were removed and the adipose tissue was minced as much as possible. The suspension was centrifuged at 50 g for 2 minutes at 4° C. After centrifugation, the adipose tissue pieces suspended at the uppermost layer of the supernatant as emulsion were carefully extracted and plated in DMEM in 35 mm culture dishes. The explant tissue thus obtained was treated with different concentrations of compounds after 6-7 hours.

ATGL [2] = assay: Reversal of ATGL decrease in COP1 overexpressing HepG2 cells; format: cell-based; conditions: myc-DDK-COP1, 5 μM, 24 hours
Method: COP1 is an E3 ubiquitin ligase with ATGL as one of its targets for ubiquitination and subsequent proteasomal degradation by 26S proteasome. Therefore, it is only legit for ATGL levels to decrease upon COP1 overexpression. To this end, HepG2 cells were transfected with 500 ng of myc-DDK-COP1 plasmid using Lipofectamine 2000 and treated with 5 μM of the compounds 9 and 10 for 24 hours. 48 hours post transfection, cells were harvested and western blot was carried out.

COP1 [3] = molecular target: T1, COP1 (Mus musculus, UniProt Q9R1A8); assay: In vivo study: COP1 level in mouse liver; parameters: from tissue; host or cells: mouse liver (in vivo dosing); species or system C57BL/6 mice; conditions: 30 mg/kg orally
T1 sequence (Q9R1A8 whole entry): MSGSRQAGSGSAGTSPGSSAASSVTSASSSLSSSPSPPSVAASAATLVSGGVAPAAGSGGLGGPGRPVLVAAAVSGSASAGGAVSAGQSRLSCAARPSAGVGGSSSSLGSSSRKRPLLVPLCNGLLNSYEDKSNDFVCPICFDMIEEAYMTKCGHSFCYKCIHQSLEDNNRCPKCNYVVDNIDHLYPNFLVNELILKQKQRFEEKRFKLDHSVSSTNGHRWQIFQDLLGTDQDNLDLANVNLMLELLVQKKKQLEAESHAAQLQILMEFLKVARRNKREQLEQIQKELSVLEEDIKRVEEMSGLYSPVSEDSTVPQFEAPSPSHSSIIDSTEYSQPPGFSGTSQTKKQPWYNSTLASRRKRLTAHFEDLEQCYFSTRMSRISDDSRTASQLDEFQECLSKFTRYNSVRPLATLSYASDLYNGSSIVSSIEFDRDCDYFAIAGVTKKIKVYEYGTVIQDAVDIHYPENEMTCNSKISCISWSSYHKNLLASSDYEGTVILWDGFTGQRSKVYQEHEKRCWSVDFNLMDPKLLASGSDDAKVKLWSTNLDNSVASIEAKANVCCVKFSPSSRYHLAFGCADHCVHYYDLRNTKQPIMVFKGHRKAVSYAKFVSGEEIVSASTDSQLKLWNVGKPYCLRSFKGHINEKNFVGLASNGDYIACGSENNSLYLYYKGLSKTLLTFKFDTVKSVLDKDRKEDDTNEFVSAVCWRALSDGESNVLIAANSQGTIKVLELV
Method: 6-8 weeks old healthy female C57BL/6 mice (average weight: 25 grams) were taken for the study. These were then divided into three groups comprising of three mice per group (Control, compound 107 fed for 8 hours and compound 107 fed for 16 hours). Mice were fed with 30 mg/kg of compound 107 orally. The compound was dissolved in 25% DMSO and 75% PBS. The control group was fed only with the solvent in which the compound was dissolved. Post 8 hours and 16 hours of feeding, mice were sacrificed and a portion of the excised liver tissue was homogenized in lysis buffer containing protease inhibitor cocktail. The homogenate was centrifuged at 20,000 g for 30 minutes following which the supernatant containing the protein lysate was collected. The lysate was then diluted accordingly and protein estimation was carried out by Bradford Assay. This was followed by Western Blotting wherein the levels of ATGL and COP1 were checked. Actin was used as the loading control.

COP1 [4] = molecular target: T1, COP1; assay: COP1 level in primary mouse hepatocytes (western blot); format: cell-based; parameters: endogenous in cells; host or cells: primary mouse hepatocytes (C57bl/6); conditions: 24 hours
Method: as §1
1. Hepatocytes—2-4 months old chow-fed black male mouse (C57bl/6) was sacrificed using chloroform (SRL) and was cleaned with 70% ethanol. […] Blood was drawn from the heart in order to prevent backflow into liver while perfusion. The butterfly cannula was inserted into the PV and 20 ml of HBSS (Hank's Balanced Salt Solution; 5 mM KCl, 0.4 mM KH2PO4, 4 mM NaHCO3, 140 mM NaCl, 0.3 mM Na2HPO4, 6 mM Glucose, HEPES, 0.5 mM MgCl2·6H2O, 0.4 mM MgSO4·7H2O, 0.5 mM EDTA; not containing 1 mM CaCl2)) was allowed to pass through the liver (Perfusion) at a constant flow rate of 3 ml/min, maintained by Masterflex digital peristaltic pump (Cole-Parmer). The IVC was cut as soon as the passage of the buffer through the liver began, so that blood and perfusate from liver is drained through the IVC. The liver blanched and became pale in color upon this treatment. […]

Compound	ATGL level in mouse adipose explants (ATGL [1])	Restoration of ATGL level upon COP1 overexpression (ATGL [2])	COP1 level in liver, 8 hours after feeding (COP1 [3])	COP1 level in primary mouse hepatocytes (COP1 [4])
COCCn1cnc2ccc(NC(=O)Nc3cccc(C(C)=O)c3)cc2c1=O [Compound 9, 1-(3-acetylphenyl)-3-(3-(2-methoxyethyl)-4-oxo-3,4-dihydroquinazolin-6-yl)urea]	no such changes were observed; also recorded: this effect was absent; also recorded: did not show any significant changes in ATGL protein	could restore the reduced ATGL level; also recorded: could restore ATGL to its normal level	–	–
COCCn1c(C)nc2ccc(NC(=O)Nc3cccc(C(C)=O)c3)cc2c1=O [Compound 107, 1-(3-acetylphenyl)-3-(3-(2-methoxyethyl)-2-methyl-4-oxo-3,4-dihydroquinazolin-6-yl)urea]	no such changes were observed; also recorded: this effect was absent; also recorded: did not show any significant changes in ATGL protein	–	no such effect on COP1; also recorded: no significant impact	–
COCCn1c(CN2CCCCC2)nc2ccc(NC(=O)Nc3cccc(C(C)=O)c3)cc2c1=O [Compound 238, 1-(3-acetylphenyl)-3-(3-(2-methoxyethyl)-4-oxo-2-(piperidin-1-ylmethyl)-3,4-dihydroquinazolin-6-yl)urea]	–	–	–	increase ATGL and COP1 levels dose dependently; also recorded: increased only with 5 μM concentration
